In PubChem BioAssay AID2742 (NMMLSC, 2010):
Active and inactive are the calls of the source.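 Rule for the calls: active = fitted half-maximal concentration for changing background-corrected GFP signal at or below a set limit; inactive = the rest.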

Experiment: TOR pathway reporter MEP2-GFP, concentration series – S. cerevisiae, flow cytometry GFP, MLPCN hits, dose response (AID 2742);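 note: GFP tag reports level of MEP2 protein as a downstream target of TOR signalling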
Conditions: S. cerevisiae MEP2-GFP strain, flow cytometry fluorescence, 3 h; at 33 µM (top of the series)

| SMILES | GFP fluorescence (kMESF), higher = increase |
| --- | --- |
| c1ccc(-c2csc(Nc3cccnc3)n2)nc1 | 1.4 kMESF (inactive) |
| COc1ccc([C@@]2(C(C)C)ON(c3ccccc3C(F)(F)F)C2=O)cc1 | 3.06 kMESF (inactive) |
| CN(C)C(=O)Oc1ccnc2cc(Cl)ccc12 | 3.58 kMESF (inactive) |
| CC(C)(C)c1nnc(N/N=C/c2cc(Br)ccc2O)n(N)c1=O | 2.57 kMESF (inactive) |
| Cc1ccc(-c2nc(C)sc2CC(=O)Nc2nnc(C)s2)cc1 | 1.85 kMESF (inactive) |
| Oc1ccc(Br)cc1/C=N/Nc1ccccn1 | 3.94 kMESF (inactive) |
| CC1(c2ccccc2)ON(c2ccccc2C(F)(F)F)C1=O (centres undefined) | 4.18 kMESF (inactive) |
| CCN(CC(=O)Nc1cc(S(=O)(=O)N2CCOCC2)ccc1Cl)Cc1ccccc1 | 2.25 kMESF (inactive) |
| Cc1cccc(N2C(=O)C(Cl)=C(Nc3c(C)n(C)n(-c4ccccc4)c3=O)C2=O)c1C | 3.31 kMESF (inactive) |
| CC(C)(C)C1C/C(=C/c2ccccn2)C(=O)/C(=C/c2ccccn2)C1 (centres undefined) | 2.67 kMESF (inactive) |
| Oc1ccc(CNc2ccccc2)c2cccnc12 | 3.28 kMESF (inactive) |
| CCCCCCCCCCCCCCCC[n+]1cccc2ccccc21 | 1.62 kMESF (inactive) |
| O=C(/C=C/c1ccccc1)NC(=S)NNC(=O)Cc1cccs1 | 2.02 kMESF (inactive) |
| C[n+]1ccc(/C=C/c2c[nH]c3ccccc23)cc1 | 7.26 kMESF (inactive) |
| Oc1ccc(COCc2ccccc2)c2cccnc12 | 6.91 kMESF (inactive) |
| CCCS(=O)(=O)c1nnnn1-c1cccc(OC)c1 | 2.18 kMESF (inactive) |
| CCCc1cc(NCc2ccccn2)n2nc(C)c(-c3ccccc3)c2n1 | 2.86 kMESF (inactive) |
| CC(=O)n1cc(C(C[N+](=O)[O-])SCCN)c2ccccc21 (centres undefined) | 3.64 kMESF (inactive) |
| Oc1c(CN2CCN(c3ccccc3)CC2)cc(Br)c2cccnc12 | 7.37 kMESF (inactive) |
| CN(C)c1ccc(/C=C/c2cc[n+](C)cc2)cc1 | 2.76 kMESF (inactive) |
| Cc1cc(C)c(S(=O)(=O)ON2C(=O)c3ccccc3C2=O)cc1C | 3.17 kMESF (inactive) |

| SMILES | GFP fluorescence (kMESF), higher = increase |
| --- | --- |
| CCn1c(=O)c(C(C)=O)c(O)c2ccccc21 | 3.81 kMESF (inactive) |
| CC(=O)[C@]1(O)Cc2c(O)c3c(c(O)c2[C@@H](O[C@H]2C[C@H](N)[C@H](O)[C@H](C)O2)C1)C(=O)c1ccccc1C3=O | 4.71 kMESF (inactive) |
| Cc1ccccc1OCC(=O)NNC(=S)NC(=O)c1ccco1 | 5.41 kMESF (inactive) |
| CC(C)Cn1c(=O)c(C(=O)Nc2ccncc2)c(O)c2ccccc21 | 3.98 kMESF (inactive) |
| O=C(Oc1oc(-c2ccco2)nc1C=Nc1ccccc1)c1ccoc1 | 4.11 kMESF (inactive) |
| Cc1ccc(NC(=O)c2cc(N3C(=O)C=CC3=O)ccc2Cl)cc1C | 5.17 kMESF (inactive) |
| O=[N+]([O-])c1cc(O)c2ncccc2c1 | 5.96 kMESF (inactive) |
| CCC(=O)Oc1oc(-c2ccccc2)nc1C=Nc1ccc(C)cc1 | 3.2 kMESF (inactive) |
| COc1cccc(/C=C2\C(=O)N(c3cccc(C)c3)C(=O)c3ccccc32)c1 | 4.32 kMESF (inactive) |
| O=C(Nc1ccc(NC(=O)c2cc3ccccc3o2)cc1)c1ccco1 | 2.1 kMESF (inactive) |
| Cn1ncc2c(O/N=C(\N)c3ccc(C(C)(C)C)cc3)ncnc21 | 3.78 kMESF (inactive) |
| O=c1c2cnn(-c3ccccc3)c2ncn1Cc1ccco1 | 1.97 kMESF (inactive) |
| O=c1c2cc(Cl)ccc2nc(-c2ccc([N+](=O)[O-])cc2)n1O | 4.58 kMESF (inactive) |
| Cc1ccc(/C=C2\C(=O)NC(=S)N(c3ccc(F)cc3)C2=O)s1 | 4.08 kMESF (inactive) |
| Cc1cc(C)c(OCC(=O)Nc2nc(-c3ccccn3)cs2)c(C)c1 | 2.37 kMESF (inactive) |
| O=C(Nc1nc2ccc(F)cc2s1)c1ccccn1 | 3.71 kMESF (inactive) |
| Cc1[nH]n(-c2ncc(-c3ccccc3)s2)c(=O)c1C(c1ccc(Cl)cc1)C(C#N)C#N (centres undefined) | 4.02 kMESF (inactive) |
| COc1ccc(-c2cc3nc4n(c(=O)c3s2)CCC4)cc1 | 1.07 kMESF (inactive) |
| O=C(NC(=S)NNC(=O)c1ccc(Cl)cc1Cl)c1cccnc1 | 1.66 kMESF (inactive) |
| O=C(c1ccc(Cl)cc1)N1CCN(c2cccc3[nH]ccc23)CC1 | 3.33 kMESF (inactive) |
| Clc1cnc(N/N=C/c2cccs2)c(Cl)c1 | 2.89 kMESF (inactive) |

| SMILES | GFP fluorescence (kMESF), higher = increase |
| --- | --- |
| CCN1C(=O)/C(=C\C(=O)c2cccs2)c2cc(Br)ccc21 | 9.04 kMESF (inactive) |
| CCc1cc(C(=O)Nc2nc(-c3ccccn3)cs2)sc1C | 6.18 kMESF (inactive) |
| Oc1ccc(N=Nc2ccccc2)o1 | 4.33 kMESF (inactive) |
| O=C1C(=O)c2ccccc2-c2ccccc21 | 2.76 kMESF (inactive) |
| COc1cccc(N=Cc2nc(-c3ccccc3)oc2OC(C)=O)c1 | 3.64 kMESF (inactive) |
| Cc1ccc(S(=O)(=O)c2ncccc2[N+](=O)[O-])cc1 | 3.64 kMESF (inactive) |
| Cc1ccc(C2=NN(S(C)(=O)=O)C(c3ccc4c(c3)OCO4)C2)cc1 (centres undefined) | 2.44 kMESF (inactive) |
| C#CCOCCOCCOCCNc1nc(N2CCN(C(=O)CCCCCCCCCCNC(=O)[C@H](CCCCN)n3cc(CCO)nn3)CC2)nc(N2CCN(C(=O)CCCCCCCCCCNC(=O)[C@H](CCCN=C(N)N)n3cc(C[C@@H](C)CC)nn3)CC2)n1 | 3.54 kMESF (inactive) |
| Cc1cc(S(=O)(=O)ON2C(=O)c3ccccc3C2=O)ccc1F | 4.9 kMESF (inactive) |
| O=[N+]([O-])c1cc(Cl)c2cccnc2c1O | 5.35 kMESF (inactive) |
| O=C(O)c1ccccc1SC1CC(=O)N(c2ccc3c(c2)OCO3)C1=O (centres undefined) | 3.4 kMESF (inactive) |
| CC[C@]1(c2ccccc2OC)ON(c2ccccc2C(F)(F)F)C1=O | 4.31 kMESF (inactive) |
| Cc1ccc(C2=NOC(=O)/C2=C\c2ccc(C)o2)cc1 | 2.14 kMESF (inactive) |
| O=[N+]([O-])c1ccc(S(=O)(=O)c2cccc(C(F)(F)F)c2)nc1 | 4.85 kMESF (inactive) |
| O=C1C=CC(=O)N1c1cccc(-c2ccccc2)c1 | 5.31 kMESF (inactive) |
| CCN(CC(=O)NC(C)(C)C)C(=O)COc1c(Cl)cc(Cl)c2ccc(C)nc12 | 6.41 kMESF (inactive) |
| O=C1C(Cl)=C(Nc2ccccc2O)C(=O)N1CCc1ccccc1 | 3.11 kMESF (inactive) |
| O=C(Oc1c(Cl)cc(Cl)c2cccnc12)c1cccs1 | 3.47 kMESF (inactive) |
| CCOC(=O)CSC1=NC(=O)/C(=C/c2ccc(OC)cc2)S1 | 1.26 kMESF (inactive) |
| O=[N+]([O-])c1c(Nc2ccccn2)cc(Cl)c2nonc12 | 21.3 kMESF (inactive) |
| COc1ccc(CCNC2=C(Cl)C(=O)N(CCc3ccccc3)C2=O)cc1OC | 2.6 kMESF (inactive) |

| SMILES | GFP fluorescence (kMESF), higher = increase |
| --- | --- |
| N#Cc1ccc(N=c2ssnc2Cl)cc1 | 3.37 kMESF (inactive) |
| COc1ccc(N2C(=O)/C(=C/c3cccs3)C(=O)NC2=S)cc1 | 4.01 kMESF (inactive) |
| C/C(=N\Nc1ncnc2sc(C)c(C)c12)c1ccccn1 | 38.2 kMESF (inactive) |
| COc1ccc(C(=O)/C=C2/C(=O)Nc3ccccc32)cc1 | 4.25 kMESF (inactive) |
| COc1ccc(N2CCN(C(=O)c3ccc(Br)cc3)CC2)c([N+](=O)[O-])c1 | 2.28 kMESF (inactive) |
| COc1cc(/C=C2/C(=O)c3cccc([N+](=O)[O-])c3C2=O)c(Br)cc1O | 3.18 kMESF (inactive) |
| Cc1c(NC2=C(Cl)C(=O)N(c3ccccc3Cl)C2=O)c(=O)n(-c2ccccc2)n1C | 1.97 kMESF (inactive) |
| CCOc1cc(C=C2C(=O)c3ccccc3C2=O)ccc1OCC(=O)Nc1ccc(C)cc1 | 1.75 kMESF (inactive) |
| CC(C)(C)C(=O)NC(=S)NNC(=O)c1ccc(-c2ccccc2)cc1 | 3.92 kMESF (inactive) |
| NC(=O)COc1ccc(C(=O)/C=C2/C(=O)Nc3ccccc32)cc1 | 3.66 kMESF (inactive) |
| Cc1nc2ccc(NC(=O)c3oc4ccc(F)cc4c3C)cc2s1 | 2.07 kMESF (inactive) |
| COc1ccc(N2C(=O)C(Cl)=C(Nc3c(C)n(C)n(-c4ccccc4)c3=O)C2=O)cc1 | 2.4 kMESF (inactive) |
| CN(C)NC(=S)Nc1ccc(S(=O)(=O)N2CCCCC2)cc1 | 1.92 kMESF (inactive) |
| Cc1ccc(C(CC(=O)O)NC(=O)c2ccc(S(=O)(=O)N3CC(C)OC(C)C3)cc2)cc1 (centres undefined) | 3.08 kMESF (inactive) |
| CC1=NNC(=O)/C1=C\c1cn(-c2ccccc2)nc1-c1ccccc1 | 3.11 kMESF (inactive) |
| O=C(c1ccccn1)c1conc1C(=O)c1ccc(Br)cc1 | 2.83 kMESF (inactive) |
| O=C(Nc1cccc(C(F)(F)F)c1)Oc1ccc(Cl)c2cccnc12 | 2.78 kMESF (inactive) |
| CCOC(=O)Cn1cc(/C=C/[N+](=O)[O-])c2ccccc21 | 4.22 kMESF (inactive) |
| O=C(O)c1cc[c]([Hg][Cl])cc1 | 4.47 kMESF (inactive) |
| O=C(COc1ccccc1)NNC(=S)NC(=O)c1ccccc1 | 2.59 kMESF (inactive) |
| COc1ccc2c(c1)c1nnc(SC)nc1n2C | 1.9 kMESF (inactive) |
